Data from PMC8229129, “Local Colonic Administration of a Serine Protease Inhibitor Improves Post-Inflammatory Visceral Hypersensitivity in Rats” (Pharmaceutics, 2021).

Assays:
[1] = tested on: colonic mucosal inflammation; assay: Colonoscopic inflammatory score; type: in vivo, Sprague–Dawley rats; settings: for Colonoscopy, Day of VMR: score 0–19, mean ± SEM, n = 8
Method: An in vivo colonoscopy was performed to assess the presence and extent of TNBS-induced colitis, as previously described. Briefly, rats were anesthetized (ketamine/xylazine, 35/5 mg/kg, i.p.) and placed in a supine position. The lubricated tip of a pediatric upper gastrointestinal endoscope (Olympus GIF-N30) was carefully introduced into the colorectum and advanced until the hepatic flexure was reached. Then, the endoscope was slowly withdrawn while assessing the mucosal damage using a validated and standardized scoring system (Supplementary Table S1). In brief, a total inflammatory score (0–19) was calculated based on the extent of ulcerations, as well as on the presence of edema, bleeding, and colonic stenosis.

[2] = tested on: colonic mucosal damage; assay: Macroscopic score of mucosal damage; type: in vivo, Sprague–Dawley rats; settings: for Macroscopy, Day of VMR: score 0–10, mean ± SEM, n = 8
Method: After VMR and compliance measurements, the rat was sacrificed by exsanguination under pentobarbital anesthesia (45 mg/kg, i.p.). The colon was excised, rinsed with Krebs solution, opened along the mesenteric border, and evaluated visually for the presence of mucosal damage using a previously validated scoring system (total score 0–10, Supplementary Table S2).

[3] = tested on: MPO activity in colonic tissue; assay: Colonic myeloperoxidase (MPO) activity; type: in vivo, Sprague–Dawley rats; settings: for MPO Activity, Day of VMR: mean ± SEM, n = 8, significant effect of treatment
Method: Finally, colonic MPO activity was determined in a full-thickness colonic segment (±30 mg) as published previously. MPO is a pro-inflammatory enzyme stored in the azurophilic granules of neutrophilic granulocytes and monocytes. […] One unit (U) of MPO activity is defined as the amount of enzyme required to convert 1 µmol H2O2 to H2O within 1 min at 25 °C and is expressed as U/g tissue.

[4] = tested on: kallikrein 4; parameters: method as in PMID 29911328; settings: in vitro; cited from earlier work
[5] = tested on: chronic colitis; parameters: method as in doi:10.1016/S0016-5085(16)33277-2; settings: murine CD4+CD25−CD62L+ T-cell transfer model for chronic colitis; cited from earlier work
[6] = tested on: dry eye syndrome; parameters: method as in PMID 33057006; settings: rat model of dry eye syndrome; cited from earlier work
[7] = control rats, 5.0 mg/kg intracolonic
[8] = post-colitis rats, 0.1 mg/kg intracolonic
[9] = post-colitis rats, 1.0 mg/kg intracolonic
[10] = post-colitis rats, 2.5 mg/kg intracolonic
[11] = post-colitis rats, 5.0 mg/kg intracolonic
[12] = single intracolonic administration, control and post-colitis rats

CC(=O)Nc1ccc(OP(=O)(Oc2ccc(NC(C)=O)cc2)C(Cc2ccc(N=C(N)N)cc2)NC(=O)OCc2ccccc2)cc1.Cl (stereo not drawn) [UAMC-00050]
Colonoscopy, Day of VMR [1, 7]: 0.0 ± 0.0
Colonoscopy, Day of VMR [1, 8]: 0.0 ± 0.0
Colonoscopy, Day of VMR [1, 9]: 0.0 ± 0.0
Colonoscopy, Day of VMR [1, 10]: 0.0 ± 0.0
Colonoscopy, Day of VMR [1, 11]: 0.0 ± 0.0
Effect on colonoscopic inflammatory scores [1, 12]: no effect
Macroscopy, Day of VMR [2, 7]: 0.0 ± 0.0
Macroscopy, Day of VMR [2, 8]: 0.0 ± 0.0
Macroscopy, Day of VMR [2, 9]: 0.0 ± 0.0
Macroscopy, Day of VMR [2, 10]: 0.0 ± 0.0
Macroscopy, Day of VMR [2, 11]: 0.0 ± 0.0
Effect on macroscopic evaluation of mucosal damage [2, 12]: no effect
MPO Activity, Day of VMR ([3]; control rats, 5.0 mg/kg intracolonic, vehicle 0.3 ± 0.1): 0.6 ± 0.2 U/g tissue
MPO Activity, Day of VMR ([3]; post-colitis rats, 0.1 mg/kg intracolonic, vehicle 0.3 ± 0.2): 2.0 ± 0.7 U/g tissue
MPO Activity, Day of VMR ([3]; post-colitis rats, 1.0 mg/kg intracolonic, vehicle 0.3 ± 0.2): 2.0 ± 0.5 U/g tissue
MPO Activity, Day of VMR ([3]; post-colitis rats, 2.5 mg/kg intracolonic, vehicle 0.3 ± 0.2): 2.1 ± 0.5 U/g tissue
MPO Activity, Day of VMR ([3]; post-colitis rats, 5.0 mg/kg intracolonic, vehicle 0.3 ± 0.2): 1.7 ± 0.5 U/g tissue
Effect on colonic MPO activity ([3]; single intracolonic administration, both control and post-colitis animals): increased
inhibition of kallikrein 4 [4]: efficiently inhibits
Effect on inflammation [5]: anti-inflammatory effects
Effect on inflammation [6]: anti-inflammatory effects
